Values quoted from earlier work as cited in patent US9833411B2, “Solid oral dosage forms” (Enteris Biopharma, Inc., priority 2015, dated 2017).
Converted amounts (≈) assume the structure as drawn.

What was measured:
[1] = known formulations
[2] = system: Methicillin-Resistant Staphylococcus aureus (MRSA), Stenotrophomonas maltophilia, Haemophilus influenzae, and Neisseria gonorrhoeae; conditions: values reported

CN(C)c1cc(NC(=O)CNC(C)(C)C)c(O)c2c1C[C@H]1C[C@H]3[C@H](N(C)C)C(O)=C(C(N)=O)C(=O)[C@@]3(O)C(O)=C1C2=O [Tigecycline]
maximal oral bioavailability % (% F) [1]: less than 5% | aqueous solubility: approximately 300 mg/mL | MIC [2]: 2 µg/mL (≈ 3.41 µM)
